This is an account of results in patent publication US12077503B2, “Substituted cyclic amides and their use as herbicides” (FMC CORPORATION, priority 2015, dated 2024).

What all share (assay type): in vivo
In assay [1] the test system is giant foxtail (Setaria faberii). In words: Test A preemergence. The conditions noted are these: Setaria faberi, pre-emergence, 240 h; for pest or weed control at 125 g/ha: 125 g ai/ha, 0 to 100 scale where 0 is no effect and 100 is complete control; for pest or weed control at 500 g/ha: 500 g ai/ha. The essentials: (§1)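 Treatment is preemergence as a directed soil spray after planting, or postemergence at the one- to two-leaf stage, with test chemical in a non-phytotoxic solvent mixture plus surfactant. Plants stay in the greenhouse about 10 d before visual injury scoring on a 0 to 100 scale versus untreated controls.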

Assay [2] has as its system Galium (catchweed bedstraw, Galium aparine). Description: Test A postemergence. The conditions noted are these: Galium, post-emergence, 240 h, postemergence; for pest or weed control at 125 g/ha: 125 g ai/ha. The essentials:
as §1

Assay [3] deals with Kochia (Kochia scoparia). Description: Test A postemergence. The conditions noted are these: Bassia scoparia, post-emergence, 240 h, postemergence; for pest or weed control at 125 g/ha: 125 g ai/ha. In short, it runs like this:
as §1

Assay [4] relates to barnyardgrass (Echinochloa crus-galli). Description: Test A postemergence. The conditions noted are these: Echinochloa crus-galli, post-emergence, 240 h, postemergence; for pest or weed control at 125 g/ha: 125 g ai/ha. The essentials:
as §1

Assay [5] deals with blackgrass (Alopecurus myosuroides). In words: Test A postemergence. The conditions noted are these: Alopecurus myosuroides, post-emergence, 240 h, postemergence; for pest or weed control at 125 g/ha: 125 g ai/ha. The essentials: as §1
In assay [6] the test system is corn (Zea mays). Description: Test A postemergence. The settings on record: Zea mays, post-emergence, 240 h, postemergence; for plant injury at 125 g/ha: 125 g ai/ha. The essentials:
as §1

Assay [7] deals with giant foxtail (Setaria faberii). Description: Test A postemergence. The settings on record: Setaria faberi, post-emergence, 240 h, postemergence; for pest or weed control at 125 g/ha: 125 g ai/ha. In short, it runs like this: as §1
In assay [8] the test system is pigweed (Amaranthus retroflexus). In words: Test A postemergence. The settings on record: Amaranthus retroflexus, post-emergence, 240 h, postemergence; for pest or weed control at 125 g/ha: 125 g ai/ha. In short, it runs like this: as §1
For assay [9], the system named is ragweed (common ragweed, Ambrosia elatior). Description: Test A postemergence. The conditions noted are these: Ambrosia artemisiifolia, post-emergence, 240 h, postemergence; for pest or weed control at 125 g/ha: 125 g ai/ha. The essentials: as §1
In assay [10] the test system is ryegrass, Italian (Italian ryegrass, Lolium multiflorum). In words: Test A postemergence. The settings on record: Lolium multiflorum, post-emergence, 240 h, postemergence; for pest or weed control at 125 g/ha: 125 g ai/ha. In short, it runs like this:
as §1

Assay [11] relates to wheat (Triticum aestivum). In words: Test A postemergence. The conditions noted are these: Triticum aestivum, post-emergence, 240 h, postemergence; for plant injury at 125 g/ha: 125 g ai/ha. The essentials:
as §1

Assay [12] has as its system barnyardgrass (Echinochloa crus-galli). In words: Test B flooded paddy test. The settings on record: Echinochloa crus-galli, 250 g ai/ha, Flood, read-out: Barnyardgrass plant response rating. The essentials: (§2)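 Compound goes directly into floodwater once pots are flooded 3 cm above soil, targeting plants at two leaves; the water depth is then held for the test duration. Plants sit 13–15 d in a greenhouse and are rated visually, 100 denoting complete control.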

For assay [13], the system named is ducksalad (Heteranthera limosa). Description: Test B flooded paddy test. The settings on record: Heteranthera limosa, 250 g ai/ha, Flood, read-out: Ducksalad plant response rating. In short, it runs like this: as §2
In assay [14] the test system is rice (Oryra sativa). In words: Test B flooded paddy test. The settings on record: Oryza sativa, 250 g ai/ha, Flood, read-out: Rice plant response rating. In short, it runs like this:
as §2

The subject of assay [15] is sedge, umbrella (small-flower umbrella sedge, Cyperus difformis). In words: Test B flooded paddy test. The conditions noted are these: Cyperus difformis, 250 g ai/ha, Flood, read-out: Sedge, Umbrella plant response rating. The essentials: as §2
Setting [16] is: 0 to 100 scale where 0 is no effect and 100 is complete control.
[17] abbreviates: scale of 0 to 100 where 0 is no effect and 100 is complete control.

Structures are written as SMILES. Like-named read-outs stand apart in the source and are kept apart here.

Take `Cc1cc([C@H]2CN(C)C(=O)[C@@H]2C(=O)Nc2ccccc2F)ccc1Br` [Compound 1098]: the pest or weed control at 125 g/ha in [1] (preemergence, approx. 10 d, read-out: Foxtail, Giant plant response rating) was 90%; in assay [2] (visual injury on 0 to 100 scale (0 no effect, 100 complete control), approx. 10 d, read-out: Galium plant response rating) it was 30%; in [3] (visual injury on 0 to 100 scale (0 no effect, 100 complete control), approx. 10 d, read-out: Kochia plant response rating) it was 20%; in assay [4] (visual injury on 0 to 100 scale (0 no effect, 100 complete control), approx. 10 d, read-out: Barnyardgrass plant response rating), 80%; in assay [5] (visual injury on 0 to 100 scale (0 no effect, 100 complete control), approx. 10 d, read-out: Blackgrass plant response rating) it was 20%; in [7] (visual injury on 0 to 100 scale (0 no effect, 100 complete control), approx. 10 d, read-out: Foxtail, Giant plant response rating), 80%. In addition, the pest or weed control at 125 g/ha came to 0% in [8] (visual injury on 0 to 100 scale (0 no effect, 100 complete control), approx. 10 d, read-out: Pigweed plant response rating); 0% in assay [9] (visual injury on 0 to 100 scale (0 no effect, 100 complete control), approx. 10 d, read-out: Ragweed plant response rating); 40% in [10] (visual injury on 0 to 100 scale (0 no effect, 100 complete control), approx. 10 d, read-out: Ryegrass, Italian plant response rating). Further, the pest or weed control at 500 g/ha in assay [1] (preemergence, visual injury rating about 10 d after treatment, 0 to 100 scale (0 no effect, 100 complete control), read-out: Foxtail, Giant plant response rating) stood at 90%; in assay [2] (500 g ai/ha, 0 to 100 scale, 0 is no effect, 100 is complete control, read-out: Galium plant response rating), 40%; in [3] (500 g ai/ha, 0 to 100 scale, 0 is no effect, 100 is complete control, read-out: Kochia plant response rating), 60%; in assay [4] (500 g ai/ha, 0 to 100 scale, 0 is no effect, 100 is complete control, read-out: Barnyardgrass plant response rating) it was 90%; in assay [5] (500 g ai/ha, 0 to 100 scale, 0 is no effect, 100 is complete control, read-out: Blackgrass plant response rating) it was 30%; in assay [7] (500 g ai/ha, 0 to 100 scale, 0 is no effect, 100 is complete control, read-out: Foxtail, Giant plant response rating) it was 90%. Moreover, the pest or weed control at 500 g/ha in [8] (500 g ai/ha, 0 to 100 scale, 0 is no effect, 100 is complete control, read-out: Pigweed plant response rating) came out at 0%; in assay [9] (500 g ai/ha, 0 to 100 scale, 0 is no effect, 100 is complete control, read-out: Ragweed plant response rating), 0%; in assay [10] (500 g ai/ha, 0 to 100 scale, 0 is no effect, 100 is complete control, read-out: Ryegrass, Italian plant response rating), 50%. Also, the plant injury at 125 g/ha is 0% in assay [6] (visual injury on 0 to 100 scale (0 no effect, 100 complete control), approx. 10 d, read-out: Corn plant response rating) and 0% in assay [11] (visual injury on 0 to 100 scale (0 no effect, 100 complete control), approx. 10 d, read-out: Wheat plant response rating). In addition, the plant injury at 500 g/ha in assay [6] (500 g ai/ha, 0 to 100 scale, 0 is no effect, 100 is complete control, read-out: Corn plant response rating) came to 70%; in assay [11] (500 g ai/ha, 0 to 100 scale, 0 is no effect, 100 is complete control, read-out: Wheat plant response rating) it was 50%. Further, the pest or weed control at 250 g/ha in assay [12] (setting [16]) turned out to be 0%; in assay [13] (setting [16]), 90%; in assay [14] (setting [16]), 0%; in assay [15] (setting [16]) it was 0%.
For the compound `Cc1c(F)cccc1NC(=O)[C@H]1C(=O)N(C)C[C@@H]1c1cccc(COC(F)F)c1` [Compound 874], the pest or weed control at 125 g/ha in [1] (preemergence, read-out: Foxtail, Giant plant response rating) was determined as 90%; in [2] (visual injury rating after approximately 10 d, read-out: Galium plant response rating (0 to 100 scale, 0 no effect, 100 complete control)) it was 20%; in assay [3] (visual injury rating after approximately 10 d, read-out: Kochia plant response rating (0 to 100 scale, 0 no effect, 100 complete control)), 20%; in assay [4] (visual injury rating after approximately 10 d, read-out: Barnyardgrass plant response rating (0 to 100 scale, 0 no effect, 100 complete control)), 90%; in [5] (visual injury rating after approximately 10 d, read-out: Blackgrass plant response rating (0 to 100 scale, 0 no effect, 100 complete control)), 60%; in [7] (visual injury rating after approximately 10 d, read-out: Foxtail, Giant plant response rating (0 to 100 scale, 0 no effect, 100 complete control)), 90%. In addition, the pest or weed control at 125 g/ha in assay [8] (visual injury rating after approximately 10 d, read-out: Pigweed plant response rating (0 to 100 scale, 0 no effect, 100 complete control)) turned out to be 0%; in assay [9] (visual injury rating after approximately 10 d, read-out: Ragweed plant response rating (0 to 100 scale, 0 no effect, 100 complete control)) it was 20%; in assay [10] (visual injury rating after approximately 10 d, read-out: Ryegrass, Italian plant response rating (0 to 100 scale, 0 no effect, 100 complete control)), 20%. Besides, in assay [1] (Preemergence, visual injury vs untreated controls after approximately 10 d, read-out: Foxtail, Giant plant response rating (0 to 100 scale where 0 is no effect and 100 is complete control)), the pest or weed control at 500 g/ha was determined as 100%. Moreover, the plant injury at 125 g/ha is 50% in assay [6] (visual injury rating after approximately 10 d, read-out: Corn plant response rating (0 to 100 scale, 0 no effect, 100 complete control)) and 20% in assay [11] (visual injury rating after approximately 10 d, read-out: Wheat plant response rating (0 to 100 scale, 0 no effect, 100 complete control)). The pest or weed control at 250 g/ha in assay [12] (setting [17]) stood at 65%; in assay [13] (setting [17]) it was 100%; in assay [14] (setting [17]), 0%; in assay [15] (setting [17]), 0%.
